Like-named read-outs stand apart in the source and are kept apart here.
How the values were obtained:
in vivo = details: mouse, plasma, 50 mg/kg, pH 2.3; for Cmax: po
[1] = test system: lung cancer cells (line MV522); experiment: Cancer cell proliferation (MV522) assay; assay type: cell-based
Description: The protocol for assessing cellular proliferation in cancer cells is similar to that used for assessments in HUVEC cells. Two thousand lung cancer cells (line MV522, acquired from American Tissue Cultural Collection) were seeded in growth media (RPMI1640 medium supplemented with 2 mM glutamine and 10% FBS). Cells are allowed to attach for 1 day prior to addition of test agents and /or vehicles. Cells are treated simultaneously with the same test agents used in the HUVEC assay. Cellular proliferation is quantified by MTT dye reduction assay 72 hours after exposure to test agents. The total length of the assay is 4 days vs. 5 for HUVEC cells because MV522 cells are not exposed to starvation medium.

in vitro = in vitro ADME, human; details: human liver microsomes, 5 µM test compound, 37 °C, 2 h
In short: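 HLM diluted to 5 mg/mL in 100 mM KPO4, preincubated 10 min at 37 °C with NADPH-regenerating system. Compound (5 µM final) incubated at 37 °C in triplicate, sampled at 0 and 2 h into ice-cold acetonitrile, then LC-MS analysis.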

human FAK (FAKcd409) = target: T1, human FAK (FAKcd409) (Homo sapiens, UniProt Q05397, P410T); experiment: FAK fluorescence polarization assay; assay type: biochemical; details: for inhibition at 1 µM: Table 5, read-out: % Inhibition @ 1 µM FAK
T1 construct: comprises residues methionine 409 to glutamate 689; made in house; host or cells: baculovirus vector expression system (insect cells)
Description: FAK Construct for Assay. The catalytic domain of human FAK (FAKcd409) was expressed using the baculovirus vector expression system. […] The protein was purified using classical chromatography techniques.
FAK HTS utilized the fluorescence polarization assay provided by LJL Biosystems. The kinase reaction contained: 100mM Hepes pH 7.5, 10mM MgCl2, 1mM DTT, 1mM ATP, and 1mg/ml poly Glu-Tyr (4: 1). The reaction is initiated by the addition of 5nM FAKcd409. The reaction is terminated by the addition of EDTA followed by addition of fluor-labelled peptide and anti-phosphotyrosine antibody, both provided by LJL Biosystems. Inhibition results are read on a Analyst (LJL) detector.

[2] = IP, 50 mg/kg, vehicle PEG400:H2O pH 2.3 30:70
[3] = target: T2, phosphorylated Tie-2 (aa 775-1122) (Homo sapiens, UniProt Q02763); experiment: TIE-2 spectrophotometric assay; assay type: biochemical; details: for inhibition at 1 µM: Table 5, bold values spectrophotometric assay, non-bolded DELFIA assay (bold not visible here), read-out: % Inhibition @ 1 µM Tie2-P
T2 construct: 4 to 12 nM phosphorylated Tie-2 (aa 775-1122); made in house; host or cells: insect cells
Description: This construct also carries a R774M mutation, which serves as the initiating methionine residue in translation.
The kinase-catalyzed production of ADP from ATP that accompanies phosphoryl transfer to the random copolymer poly(Glu4 Tyr) was coupled to the oxidation of NADH through the activities of pyruvate kinase (PK) and lactate dehydrogenase (LDH). NADH conversion to NAD* was monitored by the decrease in absorbance at 340 nm (ε = 6.22 cm^-1mM^-1) using a Beckman DU650 spectrophotometer. Typical reaction solutions contained 1 mM phosphoenolpyruvate, 0.24 mM NADH, 40 mM MgCl2, 5 mM DTT, 2.9 mg/mL poly(Glu4Tyr), 0.5 mM ATP, 15 units/mL PK, 15 units/mL LDH in 100 mM HEPES, pH 7.5. […]

LCK tyrosine kinase = LCK tyrosine kinase (Homo sapiens, UniProt P06239, C224D/P223M); experiment: LCK spectrophotometric assay; assay type: biochemical; details: Table 1; compound concentration 1 µM; read-out: Lck-P* (% inhibition)
Description: The spectrophotometric assay was carried out as described above for VEGF-R2, except for the following changes in concentration: LCK = 60 nM, MgCl2 = 0 mM, poly(E4Y1) = 20 mM.

[4] = test system: VEGF dependent retinal neovascularization; experiment: Neonatal rat model of retinopathy of prematurity; assay type: in vivo; details: Model ROP, intravitreal, 10 mg/ml, vehicle PEG/water 70:30
CDK4/Cyclin D3 complex = CDK4/Cyclin D3 complex (Homo sapiens, UniProt P11802); experiment: biochemical; details: for inhibition at 1 µM: read-out: CDK4 * (% inhibition)
human FGF-R1 = human FGF-R1 (Homo sapiens, UniProt P11362, C488A/C584S/L457V); experiment: FGF-R spectrophotometric assay; assay type: biochemical; details: Table 1; compound concentration 1 µM; read-out: FGF-P* (% inhibition)
Description: The spectrophotometric assay was carried out as described above for VEGF-R2, except for the following changes in concentration: FGF-R = 50 nM, ATP = 2 mM, and poly(E4Y1) =15 mM.

[5] = test system: human umbilical vein endothelial cells (HUVEC); experiment: HUVEC proliferation assay (VEGF-stimulated, MTT); assay type: cell-based; details: Homo sapiens, HUVEC, Table 1
CDK2/Cyclin A complex = CDK2/Cyclin A complex (Homo sapiens, UniProt P24941); experiment: CDK2/Cyclin A assay ([32P]ATP incorporation into Rb fragment); assay type: biochemical; details: for inhibition at 1 µM: read-out: CDK2 * (% inhibition)
human CHK1 (FL-CHK1) = target: T3, human CHK1 (FL-CHK1) (Homo sapiens, UniProt O14757); experiment: CHK1 coupled spectrophotometric assay; assay type: biochemical; details: read-out: CHK -1* (% inhibition)
T3 construct: C-terminally His-tagged full-length human CHK1 (FL-CHK1) was expressed using the baculovirus/insect cell system; made in house; host or cells: baculovirus/insect cell system
T3 sequence (O14757 1-476): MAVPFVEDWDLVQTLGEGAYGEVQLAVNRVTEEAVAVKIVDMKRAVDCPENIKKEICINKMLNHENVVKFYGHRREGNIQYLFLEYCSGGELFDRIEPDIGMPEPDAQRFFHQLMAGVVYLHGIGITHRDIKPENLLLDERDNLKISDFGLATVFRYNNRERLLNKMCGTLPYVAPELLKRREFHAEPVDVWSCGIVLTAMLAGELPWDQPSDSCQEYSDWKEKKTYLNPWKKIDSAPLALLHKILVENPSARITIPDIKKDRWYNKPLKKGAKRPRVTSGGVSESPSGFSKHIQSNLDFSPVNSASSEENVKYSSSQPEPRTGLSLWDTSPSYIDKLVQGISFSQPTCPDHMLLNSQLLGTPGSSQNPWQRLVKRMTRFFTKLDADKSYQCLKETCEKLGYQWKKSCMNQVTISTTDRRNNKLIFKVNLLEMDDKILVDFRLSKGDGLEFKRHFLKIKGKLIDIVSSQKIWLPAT
In short: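 His-tagged full-length human CHK1 from baculovirus/insect cells, 10 nM, phosphorylating Syntide-2. ADP formation coupled via PK/LDH with PEP to NADH oxidation, followed as absorbance decrease at 340 nm. Ki from initial rates at varying compound concentrations.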

CDK1 = CDK1 (Homo sapiens, UniProt P06493); experiment: CDK1 assay (Table 3); assay type: biochemical; details: Table 3, compound concentration 1 µM, NI = no significant inhibition; for inhibition at 1 µM: read-out: CDK1* (% inhibition)
[6] = target: unphosphorylated VEGF-R2Δ50 (Homo sapiens, UniProt P35968, DEL940-989/E990V); experiment: biochemical; details: read-out: FLVK* (% inhibition)
[7] = MV522, Table 1, read-out: MV522 IC50
[8] = + albumin, read-out: HUVEC + albumin IC50

T2 sequence (Q02763 775-1122): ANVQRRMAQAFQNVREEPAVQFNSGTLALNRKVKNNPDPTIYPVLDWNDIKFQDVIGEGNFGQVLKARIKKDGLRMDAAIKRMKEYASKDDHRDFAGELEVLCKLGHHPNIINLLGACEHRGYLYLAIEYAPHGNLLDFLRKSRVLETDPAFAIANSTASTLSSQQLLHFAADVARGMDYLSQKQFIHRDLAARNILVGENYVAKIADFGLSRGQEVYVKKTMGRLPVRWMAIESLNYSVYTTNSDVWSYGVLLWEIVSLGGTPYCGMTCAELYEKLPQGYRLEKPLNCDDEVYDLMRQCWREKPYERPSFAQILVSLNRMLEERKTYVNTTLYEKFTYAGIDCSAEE
Sequence of CDK1 (P06493 whole entry, species assumed): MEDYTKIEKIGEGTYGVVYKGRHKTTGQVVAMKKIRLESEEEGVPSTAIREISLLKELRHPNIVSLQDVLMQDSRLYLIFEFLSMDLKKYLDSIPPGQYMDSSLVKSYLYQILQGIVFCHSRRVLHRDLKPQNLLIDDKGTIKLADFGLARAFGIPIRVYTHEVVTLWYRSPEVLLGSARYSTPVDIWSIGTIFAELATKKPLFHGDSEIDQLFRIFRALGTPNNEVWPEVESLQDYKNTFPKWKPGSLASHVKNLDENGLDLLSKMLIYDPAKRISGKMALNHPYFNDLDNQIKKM
Sequence of CDK1 (P14635 whole entry partner, species assumed): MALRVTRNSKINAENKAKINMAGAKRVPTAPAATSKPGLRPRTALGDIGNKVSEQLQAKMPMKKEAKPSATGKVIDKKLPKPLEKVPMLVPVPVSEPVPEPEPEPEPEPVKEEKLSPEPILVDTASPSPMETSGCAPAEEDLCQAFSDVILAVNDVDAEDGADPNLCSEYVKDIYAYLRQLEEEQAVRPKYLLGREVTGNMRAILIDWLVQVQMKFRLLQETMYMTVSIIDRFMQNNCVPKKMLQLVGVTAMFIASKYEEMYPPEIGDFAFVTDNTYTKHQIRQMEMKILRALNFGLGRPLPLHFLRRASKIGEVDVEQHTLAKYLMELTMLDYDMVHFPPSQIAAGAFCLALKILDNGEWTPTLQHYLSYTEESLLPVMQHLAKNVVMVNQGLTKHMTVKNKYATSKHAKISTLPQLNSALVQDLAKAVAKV
T1 sequence (Q05397 409-689 P410T): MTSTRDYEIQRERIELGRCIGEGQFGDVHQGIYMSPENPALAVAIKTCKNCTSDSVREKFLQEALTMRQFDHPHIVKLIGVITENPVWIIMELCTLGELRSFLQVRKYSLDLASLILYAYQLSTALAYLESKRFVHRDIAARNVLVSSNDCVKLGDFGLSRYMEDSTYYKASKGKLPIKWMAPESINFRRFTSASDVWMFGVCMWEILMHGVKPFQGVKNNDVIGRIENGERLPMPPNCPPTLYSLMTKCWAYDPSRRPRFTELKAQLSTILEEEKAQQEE
Sequence of LCK tyrosine kinase (P06239 223-509 P223M/C224D): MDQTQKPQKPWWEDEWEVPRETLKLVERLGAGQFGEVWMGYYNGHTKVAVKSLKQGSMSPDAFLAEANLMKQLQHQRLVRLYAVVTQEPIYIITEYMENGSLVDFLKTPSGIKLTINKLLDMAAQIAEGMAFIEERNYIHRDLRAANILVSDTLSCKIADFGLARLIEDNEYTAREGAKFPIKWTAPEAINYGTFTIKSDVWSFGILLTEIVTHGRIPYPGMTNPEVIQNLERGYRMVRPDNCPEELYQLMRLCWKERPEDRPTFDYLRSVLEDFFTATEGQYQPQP
Sequence of CDK4/Cyclin D3 complex (P11802 whole entry): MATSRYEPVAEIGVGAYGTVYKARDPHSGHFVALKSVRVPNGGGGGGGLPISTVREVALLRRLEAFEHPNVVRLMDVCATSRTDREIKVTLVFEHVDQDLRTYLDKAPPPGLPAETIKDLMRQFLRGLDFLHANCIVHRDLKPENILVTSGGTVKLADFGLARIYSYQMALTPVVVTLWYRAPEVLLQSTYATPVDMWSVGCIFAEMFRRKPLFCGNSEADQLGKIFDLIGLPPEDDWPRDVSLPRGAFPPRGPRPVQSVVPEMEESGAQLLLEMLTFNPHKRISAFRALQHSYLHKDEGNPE
Sequence of CDK4/Cyclin D3 complex (P30281 whole entry partner): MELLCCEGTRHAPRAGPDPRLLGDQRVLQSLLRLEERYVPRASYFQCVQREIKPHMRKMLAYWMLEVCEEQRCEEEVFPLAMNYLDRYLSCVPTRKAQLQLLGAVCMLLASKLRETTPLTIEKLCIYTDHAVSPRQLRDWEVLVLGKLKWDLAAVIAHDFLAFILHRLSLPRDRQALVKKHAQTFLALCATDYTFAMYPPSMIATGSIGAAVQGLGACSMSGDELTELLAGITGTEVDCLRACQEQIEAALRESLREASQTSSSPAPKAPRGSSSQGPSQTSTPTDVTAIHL
Sequence of human FGF-R1 (P11362 456-766 L457V/C488A/C584S): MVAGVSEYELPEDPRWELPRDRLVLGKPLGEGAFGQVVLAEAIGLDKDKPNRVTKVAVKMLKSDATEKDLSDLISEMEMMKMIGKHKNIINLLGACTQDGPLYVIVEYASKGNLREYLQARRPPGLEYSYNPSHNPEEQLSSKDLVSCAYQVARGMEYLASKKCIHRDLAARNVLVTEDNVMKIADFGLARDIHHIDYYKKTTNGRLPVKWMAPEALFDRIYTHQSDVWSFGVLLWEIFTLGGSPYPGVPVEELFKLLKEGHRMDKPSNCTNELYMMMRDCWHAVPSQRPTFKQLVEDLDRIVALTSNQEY
Sequence of unphosphorylated VEGF-R2Δ50 (P35968 with tags, fused parts or gaps DEL940-989/E990V limits assumed): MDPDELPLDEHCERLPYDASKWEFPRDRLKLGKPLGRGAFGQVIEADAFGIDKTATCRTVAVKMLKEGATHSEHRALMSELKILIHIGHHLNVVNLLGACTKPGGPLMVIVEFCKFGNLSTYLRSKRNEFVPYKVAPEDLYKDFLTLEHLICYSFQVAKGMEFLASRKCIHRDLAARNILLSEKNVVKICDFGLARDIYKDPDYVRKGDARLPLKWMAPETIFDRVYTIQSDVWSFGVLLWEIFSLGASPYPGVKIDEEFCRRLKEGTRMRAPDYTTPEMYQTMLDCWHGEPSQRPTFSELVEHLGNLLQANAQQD

With `COc1cc(-c2ccc3c(/C=C/c4ccc(OC)c(OC)c4)n[nH]c3c2)ccc1O` [1(a), 3-[E-2-(3,4-Dimethoxy-phenyl)vinyl]-6-(3-methoxy-4-hydroxyphenyl)-1H-indazole] the AUC (in vivo; ip) was 691 ng·h/mL, the IC50 ([1]; MV522, read-out: MV522 IC50 (µM)) was 0.35 µM and the “% remain (HLM, 2 h)” value (in vitro) was 98%. For the same molecule, the inhibition at 10 µM (human FAK (FAKcd409); read-out: % Inhibition FAK, compound tested at 10 µM) was 69%, the T1/2 [2] was 2.4 h and the inhibition at 10 µM ([3]; read-out: % Inhibition Tie2-P, compound tested at 10 µM) was 95%.

For `O=C(Nc1cccc(Oc2ccc3c(/C=C/c4ccccc4)n[nH]c3c2)c1)c1ccccc1` [4(a), N-[3-(3-Styryl-1H-indazol-6-yloxy)-phenyl]-benzamide], the Cmax (in vivo) was 50 ng/mL, the IC50 [1, 7] was 6.3 µM and the inhibition at 1 µM [3] was 69%. The inhibition at 1 µM (LCK tyrosine kinase) was 68%, the “Initial Evaluation” value [4] was “++ (two pluses being judged to be approximately 25-75 % regression)” and the inhibition at 1 µM (CDK4/Cyclin D3 complex) was 19%.

`O=C(Nc1cccc(C(=O)c2ccc3c(/C=C/c4ccccc4)n[nH]c3c2)c1)c1ccccc1` [19(b), N-[3-(3-Styryl-1H-indazole-6-carbonyl)-phenyl]-benzamide] showed a Cmax (in vivo) of 30 ng/mL, an IC50 [1, 7] of 4.3 µM and a remaining at 2 h, 5 µM (in vitro; read-out: % remain (HLM, 2 h)) of 137%. The inhibition at 1 µM (LCK tyrosine kinase) was 58%, the inhibition at 1 µM (human FGF-R1) was 60% and the “Initial Evaluation” value [4] was “++ (two pluses being judged to be approximately 25-75 % regression)”. The IC50 [5, 8] was 27 nM, the IC50 ([5]; read-out: HUVEC IC50) was 2.9 nM and the inhibition at 1 µM (CDK4/Cyclin D3 complex) was 11%.

In the case of `CCn1nc(C)cc1C(=O)Nc1cc(Nc2ccc3c(/C=C/c4ccccn4)n[nH]c3c2)c(F)cc1C` [Example 48(a), 6-[N.(S-((1-Ethyl-3-methyl-1H-pyrazol-5-yl)carboxamido)-2-fluoro-4-methylphenyl)amino]-3-E-[2-(pyridin-2-yl)ethenyl]-1H-indazole], the inhibition at 1 µM (CDK2/Cyclin A complex) is reported as 0%, the “% remain (HLM, 2 h)” value (in vitro) is reported as 55% and the inhibition at 1 µM (human FAK (FAKcd409)) is reported as 11%. It also gave an inhibition at 1 µM [3] of 52%, an inhibition at 1 µM (LCK tyrosine kinase) of 13% and an inhibition at 1 µM (human CHK1 (FL-CHK1)) of 0%.

Work on `NC(=O)c1ccc2c(-c3nc4ccccc4[nH]3)n[nH]c2c1` [Example 53(e), 3-(1H-Benzoimidazol-2-yl)-1H-indazole-6-carboxamide] yielded an inhibition at 1 µM (CDK1) of 13%.

Work on `O=C(Nc1ccc(O)cc1)c1ccc2c(-c3nc4cc(F)c(F)cc4[nH]3)n[nH]c2c1` [Example 54(a), 3-(5,6-Difluoro-1H-benzoimidazol-2-yl)-N-(4-hydroxyphenyl)-1H-indazole-6-carboxamide] yielded an inhibition at 1 µM (CDK1) of 1%.

For `O=C(Nc1ccc(O)cc1)c1ccc2c(-c3nc4ccc5ccccc5c4[nH]3)n[nH]c2c1` [Example 54(e), 3-[1H-Naphtho(1,2-d)imidazol-2-yl]-N-(4-hydroxyphenyl)-1H-indazole-6-carboxamide], the “CDK1* (% inhibition)” value (CDK1) was “Nl @ 1µM”.

In the case of `CC(C)(C)c1ccc2[nH]c(-c3n[nH]c4cc(C(=O)Nc5ccc(O)cc5)ccc34)nc2c1` [Example 54(g), 3-(5-tert-Butyl-1H-benzoimidazol-2-yl)-N-(4-hydroxyphenyl)-1H-indazole-6-carboxamide], the inhibition at 1 µM (CDK1) is reported as 3%.

In the case of `CCOc1cc(CO)c(-c2ccc3c(-c4nc5ccccc5[nH]4)n[nH]c3c2)cc1OC` [Reference Example 24(m), 3-1H-Benzoimidazol-2-yl-6-(2-(hydroxymethyl)-4-ethoxy-5-methozy-phenyl)-1H-indazole], the inhibition at 1 µM (CDK2/Cyclin A complex) is reported as 17% and the inhibition at 1 µM (CDK4/Cyclin D3 complex) is reported as 16%.

`Oc1ccc(-c2ccc3c(/C=C/c4ccccc4)n[nH]c3c2)cc1` [Reference Example 28(b), 6-(4-hydroxyphenyl)-3-E-styryl-1H-indazole] showed an inhibition at 1 µM (CDK2/Cyclin A complex) of 97%, an inhibition at 1 µM [6] of 96% and an inhibition at 1 µM (CDK4/Cyclin D3 complex) of 98%.

`Clc1cccc(/C=C/c2n[nH]c3cc(-c4ccncc4)ccc23)c1` [Reference Example 29(i), 6-pyrid-4-yl-3-E-[2-(3-chlorophenyl)ethenyl]-1H-indazole] showed a Ki (CDK2/Cyclin A complex; Table 3, read-out: CDK2* (Ki)) of 3.1 µM and a Ki (CDK4/Cyclin D3 complex) of 5 µM.

In the case of `Cc1cc(C(=O)Nc2cccc(C(=O)c3ccc4c(/C=C/c5ccccn5)n[nH]c4c3)c2)n(C)n1` [Reference Example 41(p), 6-[3-((1,3-Dimethyl-1H-pyrazol-5-yl)carboxamido)benzoyl]-3-E-[2-(pyridin-2-yl)ethenyl]-1H-indazole], the inhibition at 1 µM (CDK2/Cyclin A complex) is reported as 6%, the “% remain (HLM, 2 h)” value (in vitro) is reported as 62% and the inhibition at 1 µM (human FAK (FAKcd409)) is reported as 9%. For the same molecule, the inhibition at 1 µM [3] was 49%, the inhibition at 1 µM (LCK tyrosine kinase) was 49% and the inhibition at 1 µM (human CHK1 (FL-CHK1)) was 0%. It also gave an IC50 [5, 8] of 2.6 nM, an IC50 ([5]; read-out: HUVEC IC50) of 0.27 nM and an inhibition at 1 µM (CDK4/Cyclin D3 complex) of 3%.

In the case of `C=CCn1nc(C)cc1C(=O)Nc1cccc(C(=O)c2ccc3c(/C=C/c4ccccn4)n[nH]c3c2)c1` [Reference Example 41(t), 6-[3-((1-Allyl-3-methyl-1H-pyrazol-5-yl)carboxamido)benzoyl]-3-E-[2-(pyridin-2-yl)ethenyl]-1H-indazole], the inhibition at 1 µM (CDK2/Cyclin A complex) is reported as 1%, the “% remain (HLM, 2 h)” value (in vitro) is reported as 87% and the inhibition at 1 µM (human FAK (FAKcd409)) is reported as 9%. The inhibition at 1 µM [3] was 51%, the inhibition at 1 µM (LCK tyrosine kinase) was 51% and the inhibition at 1 µM (human CHK1 (FL-CHK1)) was 0%. For the same molecule, the inhibition at 1 µM (human FGF-R1) was 85%, the IC50 [5, 8] was 3.8 nM and the inhibition at 1 µM (CDK4/Cyclin D3 complex) was 2%.
